Consider 25 compounds from US20230116972A1, “CD38 MODULATORS AND METHODS OF USE THEREOF” (Cytokinetics, Inc., priority 2021, published 2023).

Test [1] has as its target T1, human CD38 (Homo sapiens, UniProt P28907).
T1 sequence (P28907 1-300): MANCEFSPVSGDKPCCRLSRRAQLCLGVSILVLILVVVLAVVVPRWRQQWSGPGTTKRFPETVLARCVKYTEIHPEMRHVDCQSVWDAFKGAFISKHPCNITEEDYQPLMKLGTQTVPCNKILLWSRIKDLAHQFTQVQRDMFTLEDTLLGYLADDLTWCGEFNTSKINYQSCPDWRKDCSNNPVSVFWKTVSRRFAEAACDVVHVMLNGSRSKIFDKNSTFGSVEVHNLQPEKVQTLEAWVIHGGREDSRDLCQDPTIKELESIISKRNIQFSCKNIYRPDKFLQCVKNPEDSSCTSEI
Nature of the test: human recombinant CD38 enzyme assay (hydrolysis of NAD+). The settings on record: human recombinant CD38, 0.4 nM enzyme, 62.5 μM NAD+; read-out: hCD38 BioChem IC50. The class given is biochemical. How it is done:
(§1) Compounds described herein were assayed for their ability to inhibit the hydrolysis of NAD+ by the protein CD38. The human and mouse recombinant enzyme assays measure the inhibition of the enzyme activity by compounds using recombinant enzymes and substrates in a buffered cell-free system. The assay conditions closely mimic cellular environments. Dose responses were measured using an assay to detect the hydrolysis of NAD+. All experiments were performed in the 384-well format. […] Enzyme reactions were initiated with the addition of 10 μL of a solution containing NAD+ substrate. Subsequent detection of remaining NAD+ was determined by first converting NAD+ to NADH using alcohol dehydrogenase, then using the resulting NADH to reduce resazurine to the fluorescent product resorufin. […] Following an incubation of 60 min at ambient temperature, 10 μL of 120 mM ethanol+20 U/ml alcohol dehydrogenase+30 mM semicarbazide+0.03 mM CD38 inhibitor in 50 mM HEPES, pH 7.5, 0.2 mg/ml BSA, was added and incubated at ambient temperature for 15 min. Then 10 μl 0.32 mM NaOH was added to stop the ADH reaction (plates incubated at ambient temperature for 15 min), followed by 30 μL of 0.05 mM resazurine+1000 mU/ml Diaphorase in 200 mM Tris-HCl, pH 7.7 for 15 min at ambient temperature. The plates were read for fluorescence (Excitation/Emission=540 nm/590 nm) using an EnVision plate reader. […] Note that, in Table 4, the “Compound No” corresponds to the compound numbers in Table 1.

Test [2] addresses T2, mouse CD38 (Mus musculus, UniProt P56528).
T2 sequence (P56528 1-304): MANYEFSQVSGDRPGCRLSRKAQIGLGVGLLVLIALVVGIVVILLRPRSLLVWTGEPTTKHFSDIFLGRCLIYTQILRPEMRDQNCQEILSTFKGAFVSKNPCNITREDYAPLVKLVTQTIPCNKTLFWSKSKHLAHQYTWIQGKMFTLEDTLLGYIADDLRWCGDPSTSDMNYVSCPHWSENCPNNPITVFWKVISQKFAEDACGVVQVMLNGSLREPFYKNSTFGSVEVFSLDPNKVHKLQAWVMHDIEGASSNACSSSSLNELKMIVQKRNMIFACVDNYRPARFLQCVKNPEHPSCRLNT
Nature of the test: mouse recombinant CD38 enzyme assay (hydrolysis of NAD+). The class given is biochemical. The settings on record: read-out: mCD38 BioChem IC50. How it is done: as §1

In the case of `CO[C@H]1CC[C@H](NC(=O)c2cc(C3(O)CCC(F)(F)CC3)nc(-c3cncn3C)n2)CC1` [Compound 331, 6-(4,4-difluoro-1-hydroxycyclohexyl)-N-((1r,4r)-4-methoxycyclohexyl)-2-(1-methyl-1H-imidazol-5-yl)pyrimidine-4-carboxamide], the half-maximal inhibitory concentration (IC50) in test [1] stood at 26 nM; in test [2] it was 4.7 nM.

`Cn1cncc1-c1ncc(F)c(C(=O)Nc2ccc(OC(F)F)nc2)n1` [Compound 338, N-(6-(difluoromethoxy)pyridin-3-yl)-5-fluoro-2-(1-methyl-1H-imidazol-5-yl)pyrimidine-4-carboxamide]: the results for the concentration for half-maximal inhibition (IC50) in test [1] and in test [2] were 1.8 nM and 1.5 nM, respectively.

`Cn1cncc1-c1ccnc(C(=O)N[C@H]2CC[C@@](O)(c3ccccc3)CC2)n1` [Compound 253, N-((1r,4r)-4-hydroxy-4-phenylcyclohexyl)-4-(1-methyl-1H-imidazol-5-yl)pyrimidine-2-carboxamide]: the IC50 in test [1] is 1700 nM; in test [2], 124 nM.

As for `O=C(Nc1ccc(OC(F)F)nc1)c1nccc(-n2ccnc2)n1` [Compound 354, N-(6-(difluoromethoxy)pyridin-3-yl)-4-(1H-imidazol-1-yl)pyrimidine-2-carboxamide], the values for the half-maximal inhibitory concentration (IC50) in test [1] and in test [2] were 4.2 nM and 16.9 nM, respectively.

For `Cn1cncc1-c1ncc(F)c(C(=O)N[C@H]2CC[C@H](OC(F)(F)F)CC2)n1` [Compound 340, 5-fluoro-2-(1-methyl-1H-imidazol-5-yl)-N-((1r,4r)-4-(trifluoromethoxy)cyclohexyl)pyrimidine-4-carboxamide], the values for the half-maximal inhibitory concentration (IC50) in test [1] and in test [2] were 11.9 nM and 6.3 nM, respectively.

In the case of `O=C(N[C@H]1CC[C@H](O)CC1)c1nc(C(F)F)cc(-n2ccnc2)n1` [Compound 349, 4-(difluoromethyl)-N-((1r,4r)-4-hydroxycyclohexyl)-6-(1H-imidazol-1-yl)pyrimidine-2-carboxamide], the half-maximal inhibitory concentration (IC50) in test [1] worked out at 128 nM; in test [2], 28.2 nM.

`O=C(N[C@H]1C[C@@H](c2ccc(C(F)(F)F)nc2)C1)c1nccc(-n2ccnc2)n1` [Compound 272, 4-(1H-imidazol-1-yl)-N-((1s,3s)-3-(6-(trifluoromethyl)pyridin-3-yl)cyclobutyl)pyrimidine-2-carboxamide]: the IC50 in test [1] worked out at 1340 nM; in test [2], 224 nM.

`Cn1cncc1-c1nc(C(=O)N[C@H]2CC[C@H](OCC(F)(F)F)CC2)cc(C2CCC(F)(F)CC2)n1` [Compound 339, 6-(4,4-difluorocyclohexyl)-2-(1-methyl-1H-imidazol-5-yl)-N-((1r,4r)-4-(2,2,2-trifluoroethoxy)cyclohexyl)pyrimidine-4-carboxamide]: the IC50 came out at 17.3 nM in test [1] and 2 nM in test [2].

Regarding `O=C(NC1CCC(F)(F)CC1)c1cc(C2CCC2)nc(-n2ccnc2)n1` [Compound 185, 6-cyclobutyl-N-(4,4-difluorocyclohexyl)-2-(1H-imidazol-1-yl)pyrimidine-4-carboxamide], the IC50 in test [1] came out at 30 nM; in test [2], 14 nM.

Turning to `NC(=O)c1cn(-c2cccc(C(=O)Nc3ccc(C(F)(F)F)nc3)n2)cn1` [Compound 76, 6-(4-carbamoyl-1H-imidazol-1-yl)-N-(6-(trifluoromethyl)pyridin-3-yl)picolinamide], the 50% inhibitory concentration (IC50) in test [1] was 905 nM; in test [2], 3200 nM.

For `O=C(NC1(c2ccc(C(F)(F)F)cc2)COC1)c1cccc(-n2ccnc2)n1` [Compound 58, 6-(1H-imidazol-1-yl)-N-(3-(4-(trifluoromethyl)phenyl)oxetan-3-yl)picolinamide], the half-inhibitory concentration (IC50) in test [1] was determined as 2180 nM; in test [2], 1040 nM.

As for `Cn1cncc1-c1nc(C(=O)Nc2ccc(C(F)F)nc2)cc(C2CC3(COC3)C2)n1` [Compound 348, N-(6-(difluoromethyl)pyridin-3-yl)-2-(1-methyl-1H-imidazol-5-yl)-6-(2-oxaspiro[3.3]heptan-6-yl)pyrimidine-4-carboxamide], the IC50 in test [1] was determined as 2.5 nM; in test [2], 1 nM.

Turning to `COCCO[C@H]1C[C@H](NC(=O)c2nccc(-c3cncn3C)n2)C1` [Compound 222, N-((1r,3r)-3-(2-methoxyethoxy)cyclobutyl)-4-(1-methyl-1H-imidazol-5-yl)pyrimidine-2-carboxamide], the IC50 in test [1] came out at 933 nM; in test [2], 203 nM.

For `Cc1ccc(NC(=O)c2cccc(-c3cncs3)n2)cn1` [Compound 51, N-(6-methylpyridin-3-yl)-6-(thiazol-5-yl)picolinamide], the IC50 in test [1] was determined as 1200 nM; in test [2], 487 nM.

With `Cn1cncc1-c1ncc(Cl)c(C(=O)N[C@H]2CC[C@H](OC(F)(F)F)CC2)n1` [Compound 325, 5-chloro-2-(1-methyl-1H-imidazol-5-yl)-N-((1r,4r)-4-(trifluoromethoxy)cyclohexyl)pyrimidine-4-carboxamide], the IC50 was determined as 29.8 nM in test [1] and 19.3 nM in test [2].

`CO[C@H]1CC[C@H](NC(=O)c2cc(C3CC4(COC4)C3)nc(-c3cncn3C)n2)CC1` [Compound 327, N-((1r,4r)-4-methoxycyclohexyl)-2-(1-methyl-1H-imidazol-5-yl)-6-(2-oxaspiro[3.3]heptan-6-yl)pyrimidine-4-carboxamide]: the values for the IC50 in test [1] and in test [2] were 22.1 nM and 2.6 nM, respectively.

`O=C(Nc1cccnc1)c1cc(C(F)(F)F)cc(-c2cncs2)n1` [Compound 41, N-(pyridin-3-yl)-6-(thiazol-5-yl)-4-(trifluoromethyl)picolinamide]: the results for the concentration for half-maximal inhibition (IC50) in test [1] and in test [2] were 1210 nM and 244 nM, respectively.

Take `CO[C@H]1CC[C@H](NC(=O)c2nc(-c3cncn3C)ncc2Cl)CC1` [Compound 329, 5-chloro-N-((1r,4r)-4-methoxycyclohexyl)-2-(1-methyl-1H-imidazol-5-yl)pyrimidine-4-carboxamide]: the 50% inhibitory concentration (IC50) was 34 nM in test [1] and 10.7 nM in test [2].

For the compound `Cn1cncc1-c1nc(C(=O)Nc2ccc(C(C)(C)O)nc2)cc(C2CCC(F)(F)CC2)n1` [Compound 336, 6-(4,4-difluorocyclohexyl)-N-(6-(2-hydroxypropan-2-yl)pyridin-3-yl)-2-(1-methyl-1H-imidazol-5-yl)pyrimidine-4-carboxamide], the IC50 in test [1] came out at 12.3 nM; in test [2], 1.3 nM.

For the compound `CO[C@H]1C[C@H](NC(=O)c2nccc(-n3ccnc3)n2)C1` [Compound 313, 4-(1H-imidazol-1-yl)-N-((1r,3r)-3-methoxycyclobutyl)pyrimidine-2-carboxamide], the IC50 is 761 nM in test [1] and 198 nM in test [2].

As for `CCO[C@H]1C[C@H](NC(=O)c2nccc(-n3ccnc3)n2)C1` [Compound 301, N-((1r,3r)-3-ethoxycyclobutyl)-4-(1H-imidazol-1-yl)pyrimidine-2-carboxamide], the IC50 in test [1] is 621 nM; in test [2], 199 nM.

Turning to `O=C(Nc1ccc(C(F)F)nc1)c1cc(N2CCCC2)cc(-c2cncs2)n1` [Compound 179, N-(6-(Difluoromethyl)pyridin-3-yl)-4-(pyrrolidin-1-yl)-6-(thiazol-5-yl)picolinamide], the 50% inhibitory concentration (IC50) is 1380 nM in test [1] and 142 nM in test [2].

Turning to `Cn1cncc1-c1ccnc(C(=O)NC2CC3(COC3)C2)n1` [Compound 306, 4-(1-methyl-1H-imidazol-5-yl)-N-(2-oxaspiro[3.3]heptan-6-yl)pyrimidine-2-carboxamide], the concentration for half-maximal inhibition (IC50) in test [1] turned out to be 357 nM; in test [2] it was 81.7 nM.

As to `CC(C)(C)c1cc(-n2ccnc2)nc(C(=O)Nc2ccc(C(F)F)nc2)n1` [Compound 188, 4-(tert-butyl)-N-(6-(difluoromethyl)pyridin-3-yl)-6-(1H-imidazol-1-yl)pyrimidine-2-carboxamide], the half-maximal inhibitory concentration (IC50) stood at 1970 nM in test [1] and 661 nM in test [2].

Take `Cn1cncc1-c1nc(C(=O)Nc2ccc(C(F)(F)F)nc2)cc(C2CC3(COC3)C2)n1` [Compound 345, 2-(1-methyl-1H-imidazol-5-yl)-6-(2-oxaspiro[3.3]heptan-6-yl)-N-(6-(trifluoromethyl)pyridin-3-yl)pyrimidine-4-carboxamide]: the 50% inhibitory concentration (IC50) is 3.3 nM in test [1] and 1 nM in test [2].

Usually IC50 stands for the concentration that gives 50% inhibition.
